SMILES strings stand for the structures.

The record followed here is US8420144B2, “Kokumi-imparting agent, method of using, and compositions containing same” (Ajinomoto Co., Inc., priority 2005, dated 2013).

This assay has as its target T1, human CaSR (Homo sapiens, UniProt P41180).
T1 construct: expressed in transfected cells; host or cells: HEK 293 cells, transient transfection of a CMV-promoter expression vector
T1 sequence (P41180 20-1078): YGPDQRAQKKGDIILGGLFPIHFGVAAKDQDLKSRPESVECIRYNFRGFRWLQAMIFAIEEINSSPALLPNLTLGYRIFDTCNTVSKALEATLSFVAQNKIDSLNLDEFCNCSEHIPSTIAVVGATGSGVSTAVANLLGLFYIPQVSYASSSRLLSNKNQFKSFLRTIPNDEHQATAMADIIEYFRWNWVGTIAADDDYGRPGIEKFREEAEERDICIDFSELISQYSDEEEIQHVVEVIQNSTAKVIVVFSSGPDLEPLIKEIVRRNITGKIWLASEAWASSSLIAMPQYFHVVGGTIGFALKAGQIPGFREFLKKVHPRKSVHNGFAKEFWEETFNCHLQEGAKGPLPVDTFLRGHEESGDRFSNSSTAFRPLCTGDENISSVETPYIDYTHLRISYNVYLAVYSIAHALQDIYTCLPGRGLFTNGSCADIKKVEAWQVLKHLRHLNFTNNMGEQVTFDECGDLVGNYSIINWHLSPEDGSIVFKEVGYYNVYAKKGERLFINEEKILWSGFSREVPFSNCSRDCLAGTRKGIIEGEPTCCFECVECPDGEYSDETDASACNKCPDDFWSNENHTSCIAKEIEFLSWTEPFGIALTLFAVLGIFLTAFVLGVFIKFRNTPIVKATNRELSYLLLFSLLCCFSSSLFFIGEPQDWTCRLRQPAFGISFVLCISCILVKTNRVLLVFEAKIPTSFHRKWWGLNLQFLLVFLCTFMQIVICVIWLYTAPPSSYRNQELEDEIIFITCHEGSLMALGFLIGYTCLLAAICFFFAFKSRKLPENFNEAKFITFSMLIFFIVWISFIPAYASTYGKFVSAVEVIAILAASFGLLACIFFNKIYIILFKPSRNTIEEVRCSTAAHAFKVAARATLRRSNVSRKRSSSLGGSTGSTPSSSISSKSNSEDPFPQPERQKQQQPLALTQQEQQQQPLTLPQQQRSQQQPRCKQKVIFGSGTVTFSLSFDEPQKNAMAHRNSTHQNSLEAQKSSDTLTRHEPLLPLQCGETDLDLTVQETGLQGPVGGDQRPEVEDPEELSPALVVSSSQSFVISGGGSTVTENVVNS
The assay is described as follows: Calcium receptor (CaSR) activation activity: calcium imaging in HEK 293 cells expressing human CaSR. In kind it is cell-based. The following applies: concentration giving 50% of the maximal activity; single values n = 1, others n = 2 or 3. How it is done: Calcium receptor (CaSR) activation activity of peptides obtained in Examples 2, 3, and 5-12 were measured as follows. A cDNA of human CaSR obtained in Example 1 of WO2007/055393A1 was inserted into an expression vector for an animal cell having a CMV promoter, and the cDNA in the vector was introduced into HEK 293 cells, which had multiplied to 70% of the maximal cell density, using FuGINE6 (Roche Ltd.). After culturing the cells for 4 to 48 hours, 0.6-1.0×10^5 of cells/well were disseminated into a 96-well plate, subsequently, the cells were cultured for one day, and then stained using Calcium 3 Assay Kit. The presence or absence of a calcium receptor activation activity of each peptide was confirmed by a calcium imaging method using FLEXSTATION (Molecular Devices Inc., instruction manual). Furthermore, the concentration of each peptide giving 50% of the maximal activity (EC50) was calculated using a dose characteristic curve.

Consider `CC(C)[C@H](NC(=O)CC[C@H](N)C(=O)O)C(=O)NCC(=O)O` [γ-Glu-Val-Gly], for which the concentration for a half-maximal effect (EC50) fell in the range of 23 to 55 nM.
